Assay results reported in EP4711365A1 (Shanghai Hansoh Biomedical Co., Ltd., priority 2023, dated 2024).

How the values were obtained:
[1] = system: Groα secretion by HT-29 cells; experiment: Inhibition of Groα secretion by HT-29 cells stimulated with IL-17A (ELISA); type: cell-based, Human; conditions: Homo sapiens, IL-17A 30 ng/ml, Groα in supernatant
Description: Test example 2 Assay for inhibitory effect of compounds of the present invention against Groα secretion by HT-29 cells
Experimental objective: to measure the inhibitory effect of the compounds against Groα secretion by HT-29 cells, thereby evaluating the inhibition of the compounds on IL-17A pathway.
Experimental method: A cell suspension at 50,000 cells/ml was prepared, and 200 µl of the cell suspension was added to each well of a 96-well plate, i.e., 10,000 cells/well. The plate was cultured overnight. In the 96-well V-bottom plate, 5 mM compound solution was serially diluted 3-fold using DMSO, and the compound from each well was diluted 100-fold using a complete culture medium. IL-17A protein (R&D, #BT7955-025/CF) with a stock concentration of 100 µg/ml was diluted 333.33-fold using a complete culture medium. The compound and IL-17A were mixed at a volume ratio of 1:1 and incubated at 37°C for 30 minutes. 50 µl of a mixture of the compound and IL-17A was added to cell wells, and the final concentration of IL-17A protein was 30 ng/ml.
The mixture was incubated in a 37°C, 5% CO2 cell culture incubator for 48 hours. The concentration of Groα in the supernatant was determined by ELISA method using Human Groα Valukin Elisa kit (Biotechne, # VAL139), and the absorbance intensity at 450 nm was measured using a microplate reader (PE, EnVision2105). Data were analysed using GraphPad Prism 8.3.0.
Experimental data processing method: Data were analysed using GraphPad Prism 8.3.0.
Inhibition rate% = [(average value of positive control wells - value of sample wells)/(average value of positive control wells - average value of negative control wells)] × 100%, where the sample wells are wells containing cells plus compounds at different concentration gradients, the positive control wells are wells containing cells plus IL-17A, and the negative control wells are wells containing culture medium plus IL-17A.
Curve fitting: The IC50 value was obtained by curve fitting based on the inhibition rate (%) at each concentration using the log(inhibitor) vs. responseVariable slope (four parameters) in GraphPad Prism 6.0, and the calculation equation was Y = Bottom + (Top-Bottom)/(1+10^((LogIC50-X)*HillSlope)).

[2] = Pharmacokinetic assay in Wistar rats, oral; conditions: rat, 30 mg/kg
Description: Experimental objective: to study the pharmacokinetic behaviours of the compounds of the present invention in the body (plasma) of Wistar rats as test animals after oral administration at a dose of 30 mg/kg. • 2. Experimental scheme • 2.1 Test drugs: the examples of the present invention, prepared in house. • 2.2 Test animals: Wistar rats (female, 3 rats per group), from Beijing Vital River Laboratory Animal Technology Co., Ltd., with the animal production license no.
Solutol HS15 was melted in a water bath at 50-60°C, and then 50 mL of the melted Solutol HS15 was added to 450 mL of ultrapure water. The mixture was stirred and sonicated to obtain 500 mL of 10% Solutol HS15 solution. The compound was weighed, and according to the total administration volume, 30% PEG solution was first added. The mixture was shaken uniformly and sonicated until a clear solution was obtained. Subsequently, 70% (10% Solutol) in water was added, resulting in a colourless and clear solution with a concentration of 3.0 mg/mL.
2.4 Administration scheme: After overnight fasting, 3 female Wistar rats per group were administered orally (PO) at a dose of 30 mg/kg with an administration volume of 10 mL/kg.
• 1) To 50 uL of plasma sample was added 250 uL of acetonitrile for precipitation, and the mixture was mixed and then centrifuged at 4°C at 4000 rpm for 20 minutes. • 2) The treated supernatant solution was taken and subjected to LC/MS/MS to analyse the concentration of the test compounds. LC/MS/MS analysis instrument: AB Sciex API-4000 Qtrap-Shimadzu Controller-CBM20A.
• Chromatographic column: Waters Xbridge C18 3.5 um 2.1*50 mm • Mobile phase: solution A: 0.1% formic acid in water, and solution B: 0.1% formic acid in acetonitrile • Flow rate: 0.6 mL/min • Elution time: 0-3.5 minutes, with eluents as follows:

IC50 ([1]; HT-29, 48 h) [nM] | AUC(0-t) ([2]; in vivo) [ng·h/mL] | Cmax ([2]; in vivo) [ng/mL] | Tmax ([2]; in vivo) [h] | half-life ([2]; in vivo) [h] | SMILES | IC50 ([1]; 48 hours) [nM] | AUC(0-t) ([2]; plasma) [ng·h/mL] | Cmax ([2]; plasma) [ng/mL] | Tmax ([2]; plasma) [h] | half-life ([2]; plasma) [h]
4 | 18900 | 2160 | 4 | 4.5 | [2H]C([2H])([2H])C([2H])([2H])n1nccc1C(=O)N[C@H](C(=O)Nc1ncc([C@@H](CN2CCC(CF)CC2)N2CC(F)(F)CCC2=O)s1)[C@H]1CC[C@H](C)CC1 [Example 928] |  |  |  |  | 
6.5 | 18800 | 1710 | 4 | 9.3 | [2H]C([2H])([2H])C([2H])([2H])n1nccc1C(=O)N[C@H](C(=O)Nc1ncc([C@@H](CN2CCC(C(F)(F)F)CC2)N2CC(F)(F)CCC2=O)s1)[C@H]1CC[C@H](C)CC1 [Example 948] |  |  |  |  | 
3.5 | 24600 | 4930 | 2 | 2.9 | [2H]C([2H])([2H])OC1CCN(CC(c2cnc(NC(=O)C(NC(=O)c3ccnn3C([2H])([2H])C([2H])([2H])[2H])C3CCC(C)CC3)s2)N2CC(F)(F)CCC2=O)CC1F (stereo not shown) [Example 992] |  |  |  |  | 
2.6 | 15500 | 2650 | 2 | 3.1 | [2H]C([2H])([2H])C([2H])([2H])n1nccc1C(=O)NC(C(=O)Nc1ncc(C(CN2CCOCC2C)N2CC(F)(F)CCC2=O)s1)C1CCC(C)CC1 (stereo not shown) [Example 818] |  |  |  |  | 
9 | 13100 | 2000 | 4 | 2.4 | [2H]C([2H])([2H])O[C@@H]1CCN(C[C@H](c2cnc(NC(=O)[C@@H](NC(=O)c3ccnn3C([2H])([2H])C([2H])([2H])[2H])[C@H]3CC[C@H](C)CC3)s2)N2CC(F)(F)CCC2=O)C[C@@H]1F [Example 994] |  |  |  |  | 
4.4 | 12500 | 1240 | 4 | 6 | [2H]C([2H])([2H])C([2H])([2H])n1nccc1C(=O)N[C@H](C(=O)Nc1ncc([C@@H](CN2CCC(C(F)F)CC2)N2CC(F)(F)CCC2=O)s1)[C@H]1CC[C@H](C)CC1 [Example 938] |  |  |  |  | 
4.6 | 28400 | 2540 | 4 | 3.8 | [2H]C([2H])([2H])C([2H])([2H])n1nccc1C(=O)N[C@H](C(=O)Nc1ncc([C@@H](CN2CCOC[C@@H]2C)N2CC(F)(F)CCC2=O)s1)[C@H]1CC[C@H](C)CC1 [Example 816] |  |  |  |  | 

More lines, now with the values behind:

SMILES | IC50 ([1]; HT-29, 48 h) [nM] | AUC(0-t) ([2]; in vivo) [ng·h/mL] | Cmax ([2]; in vivo) [ng/mL] | Tmax ([2]; in vivo) [h] | half-life ([2]; in vivo) [h] | IC50 ([1]; 48 hours) [nM] | AUC(0-t) ([2]; plasma) [ng·h/mL] | Cmax ([2]; plasma) [ng/mL] | Tmax ([2]; plasma) [h] | half-life ([2]; plasma) [h]
[2H]C([2H])([2H])C([2H])([2H])n1nccc1C(=O)NC(C(=O)Nc1ncc(C(COC)n2cc(Cl)ccc2=O)s1)C1CCC(C)CC1 (stereo not shown) [Example 586] | 8.1 | 15300 | 1750 | 2 | 4.3 |  |  |  |  | 
[2H]C([2H])([2H])C([2H])([2H])n1nccc1C(=O)NC(C(=O)Nc1ncc(C(COC)N2CC(F)(F)CCC2=O)s1)C1CCC(C)CC1 [Example 613, N-((S)-2-((5-((R)-1-(5,5-difluoro-2-carbonylpiperidin-1-yl)-2-methoxyethyl)thiazol-2-yl)amino)-1-((1r,4S)-4-methylcyclohexyl)-2-carbonylethyl)-1-(ethyl-d5)-1H-pyrazole-5-carboxamide] |  |  |  |  |  | 5.6 | 21000 | 3300 | 2 | 2.6
[2H]C([2H])([2H])C([2H])([2H])n1nccc1C(=O)N[C@H](C(=O)Nc1ncc([C@@H](CN2C[C@@H](C)O[C@H](C)C2)N2CC(F)(F)CCC2=O)s1)[C@H]1CC[C@H](C)CC1 [Example 857, N-((S)-2-((5-((R)-1-(5,5-difluoro-2-oxopiperidin-1-yl)-2-((2R,6R)-2,6-dimethylmorpholino)ethyl)thiazol-2-yl)amino)-1-((1r,4S)-4-methylcyclohexyl)-2-oxoethyl)-1-(ethyl-d5)-1H-pyrazole-5-carboxamide] |  |  |  |  |  | 2.4 | 15900 | 2290 | 2 | 3.5
[2H]C([2H])([2H])C([2H])([2H])n1nccc1C(=O)N[C@H](C(=O)Nc1ncc([C@@H](CN2CCO[C@H](C)C2)N2CC(F)(F)CCC2=O)s1)[C@H]1CC[C@H](C)CC1 [Example 627, N-((S)-2-((5-((R)-1-(5,5-difluoro-2-oxopiperidin-1-yl)-2-((R)-2-methylmorpholino)ethyl)thiazol-2-yl)amino)-1-((1r,4S)-4-methylcyclohexyl)-2-oxoethyl)-1-(ethyl-d5)-1H-pyrazole-5-carboxamide] |  |  |  |  |  | 6.3 | 22100 | 2530 | 4 | 3.2
CCn1nccc1C(=O)N[C@H](C(=O)Nc1ncc([C@@H](CN2CCC(OC)CC2)N2CC(F)(F)CCC2=O)s1)[C@H]1CC[C@H](C)CC1 [Example 646] | 8 | 19800 | 3830 | 2 | 2.4 |  |  |  |  | 
C[C@H]1CC[C@H]([C@H](NC(=O)C2(F)CC2)C(=O)Nc2ncc([C@@H](CN3CCC(C(F)(F)F)CC3)N3CC(F)(F)CNC3=O)s2)CC1 [Example 774, N-((S)-2-((5-((R)-1-(5,5-difluoro-2-oxotetrahydropyrimidin-1(2H)-yl)-2-(4-(trifluoromethyl)piperidin-1-yl)ethyl)thiazol-2-yl)amino)-1-((1r,4S)-4-methylcyclohexyl)-2-oxoethyl)-1-fluorocyclopropane-1-carboxamide] | 5 | 24400 | 2310 | 4 | 4.5 |  |  |  |  | 
[2H]C([2H])([2H])C([2H])([2H])n1nccc1C(=O)N[C@H](C(=O)Nc1ncc([C@@H](CN2C[C@@H](C)O[C@@H](C)C2)N2CC(F)(F)CCC2=O)s1)[C@H]1CC[C@H](C)CC1 [Example 849, N-((S)-2-((5-((R)-1-(5,5-difluoro-2-oxopiperidin-1-yl)-2-((2R,6S)-2,6-dimethylmorpholino)ethyl)thiazol-2-yl)amino)-1-((1r,4S)-4-methylcyclohexyl)-2-oxoethyl)-1-(ethyl-d5)-1H-pyrazole-5-carboxamide] |  |  |  |  |  | 4 | 15500 | 2480 | 2 | 2.8
[2H]C([2H])([2H])C([2H])([2H])n1nccc1C(=O)N[C@H](C(=O)Nc1ncc([C@@H](CN2CCO[C@@H](C)C2)N2CC(F)(F)CCC2=O)s1)[C@H]1CC[C@H](C)CC1 [Example 628] |  | 20900 | 2270 | 4 | 3.3 | 6.7 |  |  |  | 
[2H]C([2H])([2H])C([2H])([2H])n1nccc1C(=O)N[C@H](C(=O)Nc1ncc([C@@H](CN2CCC3(CC2)CC3(F)F)N2CC(F)(F)CCC2=O)s1)[C@H]1CC[C@H](C)CC1 [Example 958] | 2.3 | 13200 | 1500 | 4 | 9.4 |  |  |  |  | 
[2H]C([2H])([2H])C([2H])([2H])n1nccc1C(=O)N[C@H](C(=O)Nc1ncc([C@@H](CN2CCOCC2)N2CC(F)(F)CCC2=O)s1)[C@H]1CC[C@H](C)CC1 [Example 624, N-((S)-2-((5-((R)-1-(5,5-difluoro-2-oxopiperidin-1-yl)-2-morpholinoethyl)thiazol-2-yl)amino)-1-((1r,4S)-4-methylcyclohexyl)-2-oxoethyl)-1-(ethyl-d5)-1H-pyrazole-5-carboxamide] |  |  |  |  |  | 4.3 | 11000 | 3400 | 1 | 1
